Test system: washed human platelets
Test: Inhibition of ADP-induced platelet aggregation in washed human platelets
Type: cell-based
Description: Isolation of Platelets: Human blood is obtained from informed healthy adult volunteers. Blood is collected into one-sixth volume of acid/citrate/dextrose (ACD) buffer (85 mM sodium citrate, 65 mM citric acid, and 100 mM glucose). Collected blood is placed in a water bath at 37° C. for 30 minutes. Blood is then centrifuged at 275×g for 16 minutes at room temperature and the platelet-rich plasma is removed and centrifuged at 2200×g for 13 minutes at room temperature. The platelet pellet is resuspended in 40 mL of HEPES-buffered Tyrode's solution (137 mM NaCl, 2.7 mM KCl, 1 mM MgCl2, 2 mM CaCl2, 12 mM NaHCO3, 0.36 mM NaH2PO4, 5.5 mM glucose, 5 mM HEPES pH 7.4, 0.35% bovine serum albumin or 0.35% human serum albumin) containing 10 U/mL heparin and 5 μM (final concentration) prostaglandin 12 (PGI2). The platelet suspension is incubated in a 37° C. water bath for 10 minutes and then 5 μM (final conc.) PGI2 is added just before centrifugation at 1900×g for 8 minutes. The resulting pellet is resuspended in 40 mL of HEPES-buffered Tyrode's solution containing 5 μM (final concentration) PGI2 and then is incubated for 10 minutes in a 37° C. water bath. A small aliquot (500 μL) of the platelet suspension is removed for platelet counting. Prior to centrifugation 5 μM (final concentration) PGI2 is added to the suspension and then the suspension is centrifuged at 1900×g for 8 minutes. The pellet is resuspended at a density of 5×10^8 cells/mL in HEPES-buffered Tyrode's solution containing 0.05 U/mL apyrase.
Aggregation Studies: ADP-induced platelet aggregation is determined by measuring the transmission of light through a 0.5 ml suspension of stirred (1000 rpm) washed platelets in a lumi-aggregometer at 37° C. (Chrono-Log Corp. Havertown, Pa.). The baseline of the instrument is set using 0.5 ml of Hepes-buffered Tyrode's solution. Prior to aggregation measurements, the platelet suspension is supplemented with 1 mg/ml fibrinogen. Platelet aggregation is initiated by the addition of indicated concentrations of ADP or other agonists, and the light transmission is continuously recorded for at least 8 min. When inhibitors of platelet aggregation are tested, platelets are incubated for 2 min in the presence of indicated concentrations of inhibitor before addition of ADP or other agonists, and the response is recorded for at least 8 min. The potency of agonists and inhibitors of platelet aggregation is calculated from both the rate of aggregation and the maximal extent of aggregation obtained for each determination by fitting the data to a four-parameter logistic equation using the GraphPad software package (GraphPad Corp. San Diego, Calif.).
IC50 values represent the concentration of antagonist necessary to inhibit by 50% the aggregation elicited by a given concentration of ADP.
Platelet IC50 data were determined using washed human platelets, according to the protocol of example 14. Agonist challenge (ADP) typically in the range of 1-5 μM.

IC50 (Homo sapiens, Platelet, read-out: PLATELET DATA IC50 (uM) Washed Platelets, washed human platelets, agonist challenge (ADP) typically 1-5 μM, average of two experiments or more): 0.081 µM
SMILES: CCNC(=O)Nc1ncnc2c1ncn2C1CC(COCc2ccsc2C(=O)O)C2OC(C=Cc3ccccc3)OC21 (centres unmarked) [Compound 298, 3-{6-[6-(3-Ethyl-ureido)-purin-9-yl]-2-styryl-tetrahydro-cyclopenta[1,3]dioxol-4-ylmethoxymethyl}-thiophene-2-carboxylic acid]
activity as antagonists of P2Y12-mediated platelet aggregation (in words) (comment on Table 1 data, washed human platelets): are active

Source: US7749981B2, “Drug-eluting stents coated with non-nucleotide P2Y12 receptor antagonist compound” (Inspire Pharmaceuticals, Inc., priority 2005, dated 2010)
